The source made the active and inactive calls. The rule behind the calls is not given here.
Tests used:
[1] = organism: Ovis aries; test: Compound was tested for its ability to inhibit Dynamin-1 GTPase activity of sheep brain; Increased activity; format: tissue-based
[2] = organism: Ovis aries; test: Concentration required against Dynamin-1 GTPase activity of sheep brain at 3 uM; format: tissue-based
[3] = organism: Ovis aries; test: Compound was tested for its ability to inhibit Dynamin-1 GTPase activity of sheep brain at 30 uM; NE=No effect

Concentration [1]: 300 µM | inhibition [2]: 70% | Activity [3]: inactive
SMILES: CCCC/C=C\C/C=C\C/C=C\C/C=C\CCCC(=O)OCC(O)CO (stereo not drawn)
